Assay results reported in publication PMC12040169 (PLOS Biology, 2025).

Assay: in vitro
Details: human, hela cells, % viability

Structure (SMILES) | viability at 28.5 h, 10 µM [%]
N#CCCn1cc(C(=O)n2nnc3ccccc32)c(-c2cc3ccccc3o2)n1 [CBK268073] | 103
CCOc1ccccc1NC(=O)CSc1nc(N)cc(O)n1 [CBK268075] | 107
O=C(CSc1nc(O)c2c(-c3ccccc3)csc2n1)NCCc1ccccc1 [CBK268077] | 97.2
CCOC(=O)c1c[nH]c2nc(COc3ccccc3)nn2c1=O [CBK268088] | 107
COc1ccc(S(=O)(=O)N(C)CC(=O)NCc2cccnc2)cc1Cl [CBK268089] | 108
CCOc1ccc(CNCCc2ccc(S(N)(=O)=O)cc2)cc1 [CBK268090C] | 94.6
CCN1CCN(C(=O)CN(C)S(=O)(=O)c2ccc(OC)c(Cl)c2)CC1 [CBK268091] | 93.2
Cn1nnnc1SCc1nc(N)nc(Nc2ccccc2)n1 [CBK268092] | 98.7
COc1ccc2nc(O)c(CN(c3ccccc3)S(=O)(=O)c3ccccc3)cc2c1 [CBK268093] | 97.7
COc1ccc(NC(=O)c2ccc(N(C)Cc3ccccc3)c([N+](=O)[O-])c2)cc1 [CBK268094] | 86.4
O=C(COc1ccc(N2CC(C(=O)O)CC2=O)cc1)Nc1cccc(C(F)(F)F)c1 (stereo not drawn) [CBK268096] | 100
CCn1c(C)c(/C=C/c2nc3ccccc3c(=O)n2CCCO)c2ccccc21 [CBK268099] | 95.7
CC12CN(S(=O)(=O)c3ccccc3)CC(c3ccccc3)(CN(S(=O)(=O)c3ccccc3)C1)C2=O [CBK268101] | 97
CC(C)NS(=O)(=O)c1ccc(NC(=O)Cc2cccc3ccccc23)cc1 [CBK268102] | 94.8
CCn1c(COc2c(C)cccc2C)nnc1SCC(=O)N1c2ccccc2Sc2ccccc21 [CBK268103] | 96.4
CCOc1c(CNCc2ccccn2)cccc1OC [CBK268104C] | 96.9
CCOC(=O)c1ccc(N2CC(C(=O)O)CC2=O)cc1 (stereo not drawn) [CBK268106] | 115
Cc1scc(C(=O)NCc2ccccn2)c1-c1ccccc1 [CBK268107] | 89
Cc1cc(C(=O)NCc2ccc(C(=O)O)cc2)no1 [CBK268108] | 98.3
Cc1ccc(OC(C)C(=O)NCCCN2CCOCC2)cc1C (stereo not drawn) [CBK268109] | 94.3
Cc1noc(C)c1C(=O)Nc1sc2c(c1C(=O)NCc1ccco1)CCCCCC2 [CBK268112] | 99.3

Structure (SMILES) | viability at 28.5 h, 10 µM [%]
Cc1cc(OCC(=O)Nc2nn(Cc3ccccc3Cl)cc2Cl)ccc1[N+](=O)[O-] [CBK268113] | 100
Cc1cc(OCC(=O)Nc2ccc(S(=O)(=O)N3CCOCC3)cc2)ccc1[N+](=O)[O-] [CBK268114] | 113
CN1CCN(NC(=O)COc2ccc(-c3ccccc3)cc2)CC1 [CBK268117] | 89.8
CCc1noc(C)c1C(=O)NCCN(C)C [CBK268118] | 97.5
COC(=O)c1c(-c2ccncc2)csc1NC(=O)Cc1ccc([N+](=O)[O-])cc1 [CBK268119] | 90.1
O=C(O)C1CC=CCC1C(=O)Nc1ccc(S(=O)(=O)N2CCc3ccccc32)cc1 (stereo not drawn) [CBK268122] | 108
O=C(Nc1cccc(Cn2cccn2)c1)c1csc2ccccc12 [CBK268123] | 93.2
CN1CCN(NC(=O)COc2cccc(C(F)(F)F)c2)CC1 [CBK268124] | 90.2
Cc1cc(C(=O)N2CCN(Cc3ccc(F)cc3Cl)CC2)no1 [CBK268126] | 100
CCc1noc(C)c1C(=O)Nc1cccc(Cn2cc(Cl)cn2)c1 [CBK268127] | 97.6
NS(=O)(=O)c1ccc(CCNC(=O)c2ccc3c(c2)OCCO3)cc1 [CBK268128] | 104
NS(=O)(=O)c1ccc(NC(=S)N2CCN(CCc3ccccc3)CC2)cc1 [CBK268133] | 97.6
Cc1cc(C(=O)Nc2sc(C)c(C)c2C(=O)NCc2cccnc2)no1 [CBK268134] | 100
CCC(Oc1cccc(Cl)c1)C(=O)NN1CCN(C)CC1 (stereo not drawn) [CBK268135] | 116
CC(Oc1ccc(Br)cc1Cl)C(=O)NCCCN1CCCC1=O (stereo not drawn) [CBK268138] | 98.7
Cc1cc(NS(=O)(=O)c2ccc(NC(=O)Nc3ccc4c(c3)OCO4)cc2)no1 [CBK268139] | 104
Cc1ccc(-c2csc(NC(=O)c3c(C)noc3C)c2C(=O)NC2CC2)cc1 [CBK268141] | 95.1
CN1CCN(NC(=O)CSc2ccccc2)CC1 [CBK268142] | 107
COc1ccccc1CCNC(=O)c1cnccn1 [CBK268147] | 59.7
CCOc1ccc(CC(=O)NN2CCOCC2)cc1OCC [CBK268150] | 102
COc1cc(NS(=O)(=O)c2ccc(NC(=O)c3c(C)noc3C)cc2)nc(OC)n1 [CBK268151] | 103

Structure (SMILES) | viability at 28.5 h, 10 µM [%]
O=C(Nc1nn(Cc2c(F)cccc2Cl)cc1Cl)c1cccnc1 [CBK268154] | 79.1
NS(=O)(=O)c1ccc(CCNC(=O)c2cccnc2)cc1 [CBK268158] | 102
Cc1ccc(OCC(=O)Nc2sc(C)c(C)c2C#N)c([N+](=O)[O-])c1 [CBK268162] | 101
Cc1c(C(N)=O)sc(NC(=O)c2cccnc2)c1C#N [CBK268163] | 105
Cc1sc(NC(=O)COc2ccccc2)c(C(N)=O)c1-c1ccccc1 [CBK268164] | 97.8
O=C(Nc1sccc1C(=O)N1CCOCC1)C(Sc1ccccc1)c1ccccc1 (stereo not drawn) [CBK268165] | 95
COc1cc(OC)c(NC(=O)c2c(-c3ccccc3)noc2C)cc1Cl [CBK268167] | 101
COc1ccc(Cl)cc1NC(=O)NCCN1CCCCC1 [CBK268169] | 112
O=C(Nc1cccc(S(=O)(=O)N2CCOCC2)c1)c1cc2ccccc2oc1=O [CBK268170] | 107
O=C(O)C1C2C=CC(O2)C1C(=O)Nc1ccc(S(=O)(=O)N2CCc3ccccc32)cc1 (stereo not drawn) [CBK268176] | 91.1
Cc1cccc(Cn2cnc(NC(=O)COc3ccc([N+](=O)[O-])c(C)c3)n2)c1 [CBK268177] | 118
CCCc1cc(C(N)=O)c(NC(=O)c2sc3ccccc3c2Cl)s1 [CBK268178] | 103
COc1cc(NS(=O)(=O)c2ccc(NC(=O)c3ccc(C)o3)cc2)nc(OC)n1 [CBK268182] | 91.6
Cc1noc(C)c1C(=O)Nc1ccc(S(=O)(=O)NCCc2ccccc2)cc1 [CBK268183] | 92.8
COc1ccc(C(CC(=O)c2ccc(C)cc2)Nc2ccc([N+](=O)[O-])cc2)cc1 (stereo not drawn) [CBK268187] | 92.2
N/C(=N\OC(=O)c1ccccc1CCc1ccccc1)c1cccnc1 [CBK268188] | 91.5
O=C(Nc1cc(Br)ccc1O)c1cnn2c(C(F)(F)F)cc(-c3cccs3)nc12 [CBK268190] | 96
CN(C)S(=O)(=O)N(CC(=O)NCC1CCCO1)c1ccccc1 (stereo not drawn) [CBK268192] | 103
Cc1ccc(Cl)cc1NC(=O)c1cc(NC(=O)C2C3C=CC(C3)C2C(=O)O)ccc1N1CCCCC1 (stereo not drawn) [CBK268194] | 85.9
O=C(NCc1ccccn1)c1cnn2c(C(F)(F)F)cc(-c3cccs3)nc12 [CBK268195] | 99.9
O=S(=O)(NCc1nc(-c2ccccc2)no1)c1ccc(F)cc1 [CBK268198] | 93.3
